Experimental data published in US9856511B2, “Protease deubiquitinating inhibitor screening” (priority 2011, dated 2018).

How the values were obtained:
[1] = tested on: FaDu head and neck carcinoma; assay: FaDu head and neck carcinoma xenograft in SCID mice; format: in vivo; conditions: plasma
Procedure: In order to investigate the effect of b-AP15 on tumor growth in vivo, the compound was administered to mice bearing either a human tumor or mouse xenografts. FaDu head and neck carcinoma were chosen as a SCID mouse xenograft both as a model for a p53mut tumor and since this model is suitable for studies using circulating cell death biomarkers (30). Significant inhibition of FaDu tumor growth was observed following daily treatment with b-AP15 (treated/control tumor volume, T/C=0.4, p=<0.001). Similarly b-AP15 (day on/2 day off schedule) inhibited tumor growth in C57BL/6J mice bearing lung carcinomas (T/C=0.16, p=<0.01). […] To examine whether b-AP15 promotes tumor cell death in vivo, plasma levels of cytokeratin-18 (CK18) were analyzed. […] To investigate the ability of b-AP15 to inhibit proteasome deubiquitination in vivo, accumulation of poly-ubiquitin conjugates was analyzed by means of antibodies specific for K48 linked polyubiquitin chains. Histological analysis of treated tumors confirmed the accumulation of poly-ubiquitin conjugates. […]
Animal experiments were conducted in full accordance with Swedish governmental statutory regulations on animal welfare under permission from local ethical committees. […] All mice were monitored and weighed daily. […] After injection, tumor growth was measured daily with calipers and the tumor volume calculated by the formula L=W^2=0.44. […]

[2] = Animal weight and side effects in treated tumor-bearing mice; format: in vivo
Procedure: In order to investigate the effect of b-AP15 on tumor growth in vivo, the compound was administered to mice bearing either a human tumor or mouse xenografts. FaDu head and neck carcinoma were chosen as a SCID mouse xenograft both as a model for a p53mut tumor and since this model is suitable for studies using circulating cell death biomarkers (30). Significant inhibition of FaDu tumor growth was observed following daily treatment with b-AP15 (treated/control tumor volume, T/C=0.4, p=<0.001). Similarly b-AP15 (day on/2 day off schedule) inhibited tumor growth in C57BL/6J mice bearing lung carcinomas (T/C=0.16, p=<0.01). […] To examine whether b-AP15 promotes tumor cell death in vivo, plasma levels of cytokeratin-18 (CK18) were analyzed. […] To investigate the ability of b-AP15 to inhibit proteasome deubiquitination in vivo, accumulation of poly-ubiquitin conjugates was analyzed by means of antibodies specific for K48 linked polyubiquitin chains. Histological analysis of treated tumors confirmed the accumulation of poly-ubiquitin conjugates.
Animal experiments were conducted in full accordance with Swedish governmental statutory regulations on animal welfare under permission from local ethical committees. Animals were housed at a max of five per cage and provided with sterile water and food ad libitum. All mice were monitored and weighed daily. For the head and neck carcinoma model a 100-μl cell suspension containing 1×10^6 FaDu cells was injected subcutaneously into the right rear flank of the animals. After injection, tumor growth was measured daily with calipers and the tumor volume calculated by the formula […]. When tumors had grown to a size of approximately 200 mm^3 (Day 0) mice were randomized to receive either vehicle (n=10) or b-AP15 5 mg/kg^−1 by subcutaneous injection s.c. (n=15) daily. For the colon carcinoma model, 2.5×10^6 HCT-116 colon carcinoma cells stably transfected with Bcl-2 (HCT-116^Bcl-2+) were inoculated subcutaneously into the right flank of nude mice. One day after inoculation mice were treated with 5 mg/kg^−1 by intra peritoneal injection (i.p.). Animals were inspected daily to establish the tumor onset and growth. For the lung carcinoma model a 100-μl cell suspension containing 2×10^5 Lewis Lung Carcinoma (LLC) cells was injected subcutaneously into the right rear flank of C57/B6 mice. When tumors had grown to a size of approximately 50 mm^3 (Day 0) mice were randomized to receive either vehicle (n=4) or b-AP15 5 mg/kg^−1 i.p. (n=4) with a treatment cycle consisting of two days treatment followed by two days no treatment (2 days on/2 days off) for two weeks. For the breast carcinoma model a 100-μl cell suspension containing 1×10^5 […] was injected subcutaneously into the right mammary fat pad of BALB/c mice. When tumors had grown to a size approximately 25 mm^3 (Day 0), mice were randomized to receive either vehicle (n=5) or b-AP15 2.5 mg/kg^−1 i.p. (n=5) with a treatment cycle consisting of one days treatment followed by three days no treatment (1 day on/3 days off) for 3 weeks. In the AML studies female C57BL/6J mice were injected i.v. in the tail vein with 5×10^5 C1498 AML cells. After eight days mice were randomized to receive either b-AP15 5 mg/kg^−1 (n=10) or vehicle (n=10) i.p. for 7 days (day +8 till +14). Nineteen days after malignant cell injection all of the mice were killed and histopathological manifestations of liver, ovary (target organs for this model of tumor) were evaluated and compared between groups. […]

With `C=CC(=O)N1C/C(=C\c2ccc([N+](=O)[O-])cc2)C(=O)/C(=C/c2ccc([N+](=O)[O-])cc2)C1` [b-AP15] the “levels of human CK18 derived from FaDu tumors in the circulation” value ([1]; total CK18, p=0.01) was “significant increase”, the “levels of caspase cleaved CK18 (CK18-Asp396) in circulation” value ([1]; compared with total levels) was “increased moderately” and the “difference in weight at start and endpoint between control and treated animals” value (“difference in weight” below) ([2]; 4T1) was “+5.8%”. The “difference in weight” value ([2]; FaDu xenograft) was −1.3%, the “difference in weight” value ([2]; LLC) was “+2.1%” and the adverse side effects ([2]; b-AP15 treated group) was “No adverse side effects were observed”. For the same compound, the “average weight loss at the conclusion of the study” value ([2]; b-AP15 treated group) was less than 5%.
